Measurements reported in ChEMBL document CHEMBL4602695, “Discovery and SARs of 5-Chloro-N4-phenyl-N2-(pyridin-2-yl)pyrimidine-2,4-diamine Derivatives as Oral Available and Dual CDK 6 and 9 Inhibitors with Potent Antitumor Activity” (J Med Chem, 2020).

Tests used:
MDA-MB-231 = assay: Antiproliferative activity against human MDA-MB-231 cells assessed as inhibition of cell proliferation measured after 48 hrs by CCK8 assay; type: functional, cell-based; conditions: MDA-MB-231, 48 h
[1] = Cytotoxicity against human L02 cells assessed as inhibition of cell proliferation measured after 48 hrs by CCK8 assay; type: cell-based
CDK6/cyclin D3 = CDK6/cyclin D3 (Homo sapiens, UniProt Q00534); parameters: species or system Sf9
Sequence of CDK6/cyclin D3 (P30281 whole entry): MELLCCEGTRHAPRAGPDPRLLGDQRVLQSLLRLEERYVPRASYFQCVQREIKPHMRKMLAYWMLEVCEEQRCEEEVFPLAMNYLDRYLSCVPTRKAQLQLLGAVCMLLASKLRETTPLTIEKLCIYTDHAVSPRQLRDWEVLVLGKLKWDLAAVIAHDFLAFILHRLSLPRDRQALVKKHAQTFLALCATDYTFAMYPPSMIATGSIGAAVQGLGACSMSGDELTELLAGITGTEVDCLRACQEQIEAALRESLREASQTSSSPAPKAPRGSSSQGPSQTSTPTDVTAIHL
Sequence of CDK6/cyclin D3 (Q00534 whole entry): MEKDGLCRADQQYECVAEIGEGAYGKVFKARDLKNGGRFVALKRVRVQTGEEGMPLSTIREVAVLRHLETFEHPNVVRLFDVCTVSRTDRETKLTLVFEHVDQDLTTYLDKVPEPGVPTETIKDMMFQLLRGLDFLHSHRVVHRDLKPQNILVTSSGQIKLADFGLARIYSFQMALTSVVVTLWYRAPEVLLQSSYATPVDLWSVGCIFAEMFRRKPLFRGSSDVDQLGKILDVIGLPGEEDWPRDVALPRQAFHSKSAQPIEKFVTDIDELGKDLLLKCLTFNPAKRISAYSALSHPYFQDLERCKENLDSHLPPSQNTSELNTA

Jurkat = assay: Antiproliferative activity against human Jurkat cells assessed as inhibition of cell proliferation measured after 48 hrs by CCK8 assay; type: functional, cell-based
CDK9/Cyclin K = CDK9/Cyclin K (Homo sapiens, UniProt P50750); assay: biochemical
Sequence of CDK9/Cyclin K (P50750 whole entry): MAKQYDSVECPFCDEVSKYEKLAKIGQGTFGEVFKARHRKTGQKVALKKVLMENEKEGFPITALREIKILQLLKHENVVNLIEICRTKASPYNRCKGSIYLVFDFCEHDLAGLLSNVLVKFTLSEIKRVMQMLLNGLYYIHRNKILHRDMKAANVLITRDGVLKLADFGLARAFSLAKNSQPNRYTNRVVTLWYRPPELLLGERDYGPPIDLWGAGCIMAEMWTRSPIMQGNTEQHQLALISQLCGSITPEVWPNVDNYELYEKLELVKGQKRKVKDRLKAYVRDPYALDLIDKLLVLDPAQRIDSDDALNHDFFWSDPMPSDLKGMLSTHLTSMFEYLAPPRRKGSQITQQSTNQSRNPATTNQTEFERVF
Sequence of CDK9/Cyclin K (O75909 whole entry, further chain): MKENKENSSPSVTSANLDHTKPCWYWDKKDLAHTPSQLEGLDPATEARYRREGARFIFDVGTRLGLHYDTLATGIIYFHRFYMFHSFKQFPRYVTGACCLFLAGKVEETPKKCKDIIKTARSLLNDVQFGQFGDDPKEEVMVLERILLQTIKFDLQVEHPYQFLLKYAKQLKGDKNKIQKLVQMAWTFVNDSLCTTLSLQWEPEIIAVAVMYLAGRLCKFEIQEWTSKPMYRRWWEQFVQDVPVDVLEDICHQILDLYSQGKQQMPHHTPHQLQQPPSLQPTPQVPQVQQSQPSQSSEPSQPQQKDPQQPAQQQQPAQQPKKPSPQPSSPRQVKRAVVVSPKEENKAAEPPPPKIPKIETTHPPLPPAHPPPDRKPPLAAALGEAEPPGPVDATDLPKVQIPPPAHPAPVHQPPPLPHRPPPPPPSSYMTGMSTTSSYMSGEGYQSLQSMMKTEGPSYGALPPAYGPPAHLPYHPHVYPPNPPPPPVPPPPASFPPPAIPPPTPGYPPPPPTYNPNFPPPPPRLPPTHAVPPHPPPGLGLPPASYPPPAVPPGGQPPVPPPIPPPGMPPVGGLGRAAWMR

MCF7 = assay: Antiproliferative activity against human MCF7 cells assessed as inhibition of cell proliferation measured after 48 hrs by CCK8 assay; type: functional, cell-based; conditions: MCF7, 48 h
CDK2/Cyclin A2 = CDK2/Cyclin A2 (Homo sapiens, UniProt P24941); parameters: species or system Sf9

Cc1ccc(CNc2nc(Nc3ccc(N4CCN(C)CC4)cn3)ncc2Cl)cc1
GI50 (MDA-MB-231): 18.6 µM | GI50 at 48 h [1]: > 100 µM | IC50 (CDK6/cyclin D3): 1.04 µM | GI50 (Jurkat): 12.7 µM | IC50 (CDK9/Cyclin K): > 10 µM | GI50 (MCF7): 38.1 µM | IC50 (CDK2/Cyclin A2): > 10 µM

COc1ccc(CCNc2nc(Nc3ccc(N4CCN(C)CC4)cn3)ncc2Cl)cc1
GI50 (MDA-MB-231): > 100 µM | GI50 at 48 h [1]: > 100 µM | IC50 (CDK6/cyclin D3): > 10 µM | GI50 (Jurkat): > 100 µM | IC50 (CDK9/Cyclin K): > 10 µM | GI50 (MCF7): 38.4 µM | IC50 (CDK2/Cyclin A2): > 10 µM

Cc1ccc(Nc2nc(Nc3ccc(N4CCN(C)CC4)cn3)ncc2Cl)cc1
GI50 (MDA-MB-231): 4.03 µM | GI50 at 48 h [1]: 13.9 µM | IC50 (CDK6/cyclin D3): 0.088 µM | GI50 (Jurkat): 30.9 µM | IC50 (CDK9/Cyclin K): 1.45 µM | GI50 (MCF7): 11.4 µM | IC50 (CDK2/Cyclin A2): > 10 µM

Cc1ccccc1Nc1nc(Nc2cc(Cl)ccn2)ncc1Cl
GI50 (MDA-MB-231): 52.4 µM | GI50 at 48 h [1]: 41.5 µM | IC50 (CDK6/cyclin D3): > 10 µM | GI50 (Jurkat): 39.6 µM | IC50 (CDK9/Cyclin K): > 10 µM | GI50 (MCF7): > 100 µM | IC50 (CDK2/Cyclin A2): > 10 µM

COc1ccc(Nc2nc(Nc3ccc(N4CCN(C)CC4)cn3)ncc2Cl)cc1
GI50 (MDA-MB-231): 8.02 µM | GI50 at 48 h [1]: 3.15 µM | IC50 (CDK6/cyclin D3): 0.606 µM | GI50 (Jurkat): 11.2 µM | IC50 (CDK9/Cyclin K): 1.38 µM | GI50 (MCF7): 8.45 µM | IC50 (CDK2/Cyclin A2): 6.11 µM

Cc1ccccc1Nc1nc(Nc2ccc(N3CCCCC3)cn2)ncc1Cl
GI50 (MDA-MB-231): > 100 µM | GI50 at 48 h [1]: 42.4 µM | IC50 (CDK6/cyclin D3): > 10 µM | GI50 (Jurkat): > 100 µM | IC50 (CDK9/Cyclin K): > 10 µM | GI50 (MCF7): 21.4 µM | IC50 (CDK2/Cyclin A2): 4.84 µM

Cc1ccccc1Nc1nc(Nc2cccnc2)ncc1Cl
GI50 (MDA-MB-231): 41.2 µM | GI50 at 48 h [1]: 22.9 µM | IC50 (CDK6/cyclin D3): 6.65 µM | GI50 (Jurkat): 38.6 µM | IC50 (CDK9/Cyclin K): 3.43 µM | GI50 (MCF7): 56.5 µM | IC50 (CDK2/Cyclin A2): 0.03 µM

CN1CCN(c2ccc(Nc3ncc(Cl)c(NCCc4ccc(F)cc4)n3)nc2)CC1
GI50 (MDA-MB-231): 28.5 µM | GI50 at 48 h [1]: > 100 µM | IC50 (CDK6/cyclin D3): > 10 µM | GI50 (Jurkat): > 100 µM | IC50 (CDK9/Cyclin K): > 10 µM | GI50 (MCF7): > 100 µM | IC50 (CDK2/Cyclin A2): > 10 µM

CC(C)c1ccccc1Nc1nc(Nc2ccc(N3CCN(C)CC3)cn2)ncc1Cl
GI50 (MDA-MB-231): 4.09 µM | IC50 (CDK6/cyclin D3): 0.033 µM | GI50 (Jurkat): 5.14 µM | IC50 (CDK9/Cyclin K): 2.65 µM | GI50 (MCF7): 4.36 µM | IC50 (CDK2/Cyclin A2): > 10 µM

Cc1ccccc1Nc1nc(NC2CCCCC2)ncc1Cl
GI50 (MDA-MB-231): > 100 µM | GI50 at 48 h [1]: > 100 µM | IC50 (CDK6/cyclin D3): > 10 µM | GI50 (Jurkat): > 100 µM | IC50 (CDK9/Cyclin K): > 10 µM | GI50 (MCF7): > 100 µM | IC50 (CDK2/Cyclin A2): > 10 µM

Cc1ccc(Nc2ncc(Cl)c(Nc3ccccc3C)n2)cc1
GI50 (MDA-MB-231): > 100 µM | GI50 at 48 h [1]: > 100 µM | IC50 (CDK6/cyclin D3): > 10 µM | GI50 (Jurkat): > 100 µM | IC50 (CDK9/Cyclin K): > 10 µM | GI50 (MCF7): > 100 µM | IC50 (CDK2/Cyclin A2): > 10 µM

Cc1ccccc1Nc1nc(NCCc2cccnc2)ncc1Cl
GI50 (MDA-MB-231): > 100 µM | GI50 at 48 h [1]: > 100 µM | IC50 (CDK6/cyclin D3): > 10 µM | GI50 (Jurkat): > 100 µM | IC50 (CDK9/Cyclin K): > 10 µM | GI50 (MCF7): > 100 µM | IC50 (CDK2/Cyclin A2): > 10 µM

CCc1ccc(Nc2nc(Nc3ccc(N4CCN(C)CC4)cn3)ncc2Cl)cc1
GI50 (MDA-MB-231): 5.56 µM | GI50 at 48 h [1]: 12.1 µM | IC50 (CDK6/cyclin D3): 0.281 µM | GI50 (Jurkat): 11.1 µM | IC50 (CDK9/Cyclin K): 6.87 µM | GI50 (MCF7): 8.23 µM | IC50 (CDK2/Cyclin A2): > 10 µM

Cc1ccccc1Nc1nc(Nc2ccncc2)ncc1Cl
GI50 (MDA-MB-231): 68.1 µM | GI50 at 48 h [1]: > 100 µM | IC50 (CDK6/cyclin D3): > 10 µM | GI50 (Jurkat): > 100 µM | IC50 (CDK9/Cyclin K): > 10 µM | GI50 (MCF7): 98.5 µM | IC50 (CDK2/Cyclin A2): 6.23 µM

Cc1cccc(Nc2nc(Nc3ccc(N4CCN(C)CC4)cn3)ncc2Cl)c1
GI50 (MDA-MB-231): 5.27 µM | GI50 at 48 h [1]: 6.08 µM | IC50 (CDK6/cyclin D3): 0.08 µM | GI50 (Jurkat): 15.3 µM | IC50 (CDK9/Cyclin K): 0.431 µM | GI50 (MCF7): 7.16 µM | IC50 (CDK2/Cyclin A2): > 10 µM

COC[C@@H](C)N[C@H]1CC[C@H](Nc2cc(-c3cccc(NCC4(C#N)CCOCC4)n3)c(Cl)cn2)CC1
GI50 (MDA-MB-231): < 0.16 µM | GI50 at 48 h [1]: 28.3 µM | IC50 (CDK6/cyclin D3): > 10 µM | GI50 (Jurkat): < 0.16 µM | IC50 (CDK9/Cyclin K): 0.002 µM | GI50 (MCF7): 43.4 µM | IC50 (CDK2/Cyclin A2): 3.46 µM

Cc1ccccc1Nc1nc(Nc2ccc(N3CCOCC3)cn2)ncc1Cl
GI50 (MDA-MB-231): 5.98 µM | GI50 at 48 h [1]: 1.99 µM | IC50 (CDK6/cyclin D3): 0.046 µM | GI50 (Jurkat): 14.1 µM | IC50 (CDK9/Cyclin K): 0.051 µM | GI50 (MCF7): 6.63 µM | IC50 (CDK2/Cyclin A2): > 10 µM

Cc1ccccc1Nc1nc(NCc2ccccc2)ncc1Cl
GI50 (MDA-MB-231): > 100 µM | GI50 at 48 h [1]: > 100 µM | IC50 (CDK6/cyclin D3): > 10 µM | GI50 (Jurkat): > 100 µM | IC50 (CDK9/Cyclin K): > 10 µM | GI50 (MCF7): > 100 µM | IC50 (CDK2/Cyclin A2): > 10 µM

CN1CCN(c2ccc(Nc3ncc(Cl)c(Nc4ccccc4)n3)nc2)CC1
GI50 (MDA-MB-231): 37.4 µM | GI50 at 48 h [1]: 7.99 µM | IC50 (CDK6/cyclin D3): 0.113 µM | GI50 (Jurkat): > 100 µM | IC50 (CDK9/Cyclin K): 9.85 µM | GI50 (MCF7): 51.8 µM | IC50 (CDK2/Cyclin A2): > 10 µM

CN1CCN(c2ccc(Nc3ncc(Cl)c(Nc4ccc(C(C)(C)C)cc4)n3)nc2)CC1
GI50 (MDA-MB-231): 16.2 µM | GI50 at 48 h [1]: 6.07 µM | IC50 (CDK6/cyclin D3): 0.735 µM | IC50 (CDK9/Cyclin K): 6.82 µM | GI50 (MCF7): 12.6 µM | IC50 (CDK2/Cyclin A2): > 10 µM

CN1CCN(c2ccc(Nc3ncc(Cl)c(NCCc4ccccc4F)n3)nc2)CC1
GI50 (MDA-MB-231): > 100 µM | GI50 at 48 h [1]: 9.67 µM | IC50 (CDK6/cyclin D3): 3.71 µM | GI50 (Jurkat): 14.3 µM | IC50 (CDK9/Cyclin K): > 10 µM | GI50 (MCF7): 8.73 µM | IC50 (CDK2/Cyclin A2): > 10 µM

Cc1ccccc1Nc1nc(Nc2ccc(N3CCN(C)CC3)cc2)ncc1Cl
GI50 (MDA-MB-231): 7.02 µM | GI50 at 48 h [1]: 6.51 µM | IC50 (CDK6/cyclin D3): 0.143 µM | GI50 (Jurkat): 13.7 µM | IC50 (CDK9/Cyclin K): 0.434 µM | GI50 (MCF7): 20.6 µM | IC50 (CDK2/Cyclin A2): 1.19 µM

CN1CCN(c2ccc(Nc3ncc(Cl)c(NCc4ccco4)n3)nc2)CC1
GI50 (MDA-MB-231): 11 µM | GI50 at 48 h [1]: 45.7 µM | IC50 (CDK6/cyclin D3): 0.279 µM | GI50 (Jurkat): > 100 µM | IC50 (CDK9/Cyclin K): > 10 µM | GI50 (MCF7): 21.3 µM | IC50 (CDK2/Cyclin A2): > 10 µM

COc1cccc(Nc2nc(Nc3ccc(N4CCN(C)CC4)cn3)ncc2Cl)c1
GI50 (MDA-MB-231): 8.51 µM | GI50 at 48 h [1]: 3.47 µM | IC50 (CDK6/cyclin D3): 0.103 µM | GI50 (Jurkat): 15.8 µM | IC50 (CDK9/Cyclin K): 6.2 µM | GI50 (MCF7): 7.54 µM | IC50 (CDK2/Cyclin A2): 0.701 µM

Cc1cc(C)c(Nc2nc(Nc3ccc(N4CCN(C)CC4)cn3)ncc2Cl)c(C)c1
GI50 (MDA-MB-231): 21 µM | GI50 at 48 h [1]: 20.5 µM | IC50 (CDK6/cyclin D3): 8.87 µM | GI50 (Jurkat): 7.6 µM | IC50 (CDK9/Cyclin K): > 10 µM | GI50 (MCF7): 9.47 µM | IC50 (CDK2/Cyclin A2): > 10 µM

COc1cc(Nc2ncc(Cl)c(Nc3ccccc3C)n2)ccn1
GI50 (MDA-MB-231): 42.6 µM | GI50 at 48 h [1]: 18.4 µM | IC50 (CDK6/cyclin D3): > 10 µM | GI50 (Jurkat): 9.38 µM | IC50 (CDK9/Cyclin K): 0.908 µM | GI50 (MCF7): > 100 µM | IC50 (CDK2/Cyclin A2): 0.074 µM

CC(C)c1ccc(Nc2nc(Nc3ccc(N4CCN(C)CC4)cn3)ncc2Cl)cc1
GI50 (MDA-MB-231): 7.02 µM | GI50 at 48 h [1]: 13.7 µM | IC50 (CDK6/cyclin D3): 0.126 µM | GI50 (Jurkat): 7.53 µM | IC50 (CDK9/Cyclin K): 9.17 µM | GI50 (MCF7): 1.88 µM | IC50 (CDK2/Cyclin A2): > 10 µM

CN1CCN(c2ccc(Nc3ncc(Cl)c(NCc4ccc(C(F)(F)F)cc4)n3)nc2)CC1
GI50 (MDA-MB-231): 19.1 µM | GI50 at 48 h [1]: 26.2 µM | IC50 (CDK6/cyclin D3): 8.93 µM | GI50 (Jurkat): 7.96 µM | IC50 (CDK9/Cyclin K): > 10 µM | GI50 (MCF7): 28.4 µM | IC50 (CDK2/Cyclin A2): > 10 µM

CC(C)c1cccc(Nc2nc(Nc3ccc(N4CCN(C)CC4)cn3)ncc2Cl)c1
GI50 (MDA-MB-231): 5.59 µM | GI50 at 48 h [1]: 12.5 µM | IC50 (CDK6/cyclin D3): 0.452 µM | GI50 (Jurkat): 12.2 µM | IC50 (CDK9/Cyclin K): 0.654 µM | GI50 (MCF7): 8.64 µM | IC50 (CDK2/Cyclin A2): > 10 µM
